Assay [1] addresses T1, μ-opioid receptor (Homo sapiens (Human), UniProt P35372). In words: μ-opioid receptor radioligand binding assay ([3H]-diprenorphine). The note with it: binding affinity. The procedure:
μ-Opioid Receptor Binding Assay Procedures: Radioligand dose-displacement binding assays for μ-opioid receptors used 0.3 nM [^3H]-diprenorphine (Perkin Elmer, Shelton, Conn.), with […] membrane protein/well in a final volume of 500 μl binding buffer (10 mM MgCl2, 1 mM EDTA, 5% DMSO, 50 mM HEPES, pH 7.4). Reactions were carried out in the absence or presence of increasing concentrations of unlabeled naloxone. All reactions were conducted in 96-deep well polypropylene plates for 2 hours at room temperature. Binding reactions were terminated by rapid filtration onto 96-well Unifilter GF/C filter plates (Perkin Elmer, Shelton, Conn.), presoaked in 0.5% polyethylenimine using a 96-well tissue harvester (Perkin Elmer, Shelton, Conn.) followed by performing three filtration washes with 500 μl of ice-cold binding buffer. Filter plates were subsequently dried at 50° C. for 2-3 hours. BetaScint scintillation cocktail (Perkin Elmer, Shelton, Conn.) was added (50 μl/well), and plates were counted using a Packard Top-Count for 1 min/well. The data were analyzed using the one-site competition curve fitting functions in GraphPad PRISM™ v. 3.0 or higher (San Diego, Calif.), or an in-house function for one-site competition curve-fitting.

Assay [2] concerns the target recombinant human kappa opioid receptor (κ) (Homo sapiens (Human), UniProt P41145). In words: κ-opioid receptor radioligand binding assay ([3H]-U69,593). The note with it: binding affinity.
A further assay deals with δ-opioid receptor (Homo sapiens (Human), UniProt P41143). In words: δ-opioid receptor [35S]GTPγS functional assay (Table 4). The format is biochemical. How it is done:
δ-Opioid Receptor Functional Assay Procedures: Functional [^35S]GTPγS binding assays were conducted as follows. δ opioid receptor membrane solution was prepared by sequentially adding final concentrations of 0.026 μg/μl δ membrane protein (Perkin Elmer, Shelton, Conn.), 10 μg/mL saponin, 3 μM GDP and 0.20 nM [^35S]GTPγS to binding buffer (100 mM NaCl, 10 mM MgCl2, 20 mM HEPES, pH 7.4) on ice. The prepared membrane solution (190 μl/well) was transferred to 96-shallow well polypropylene plates containing 10 μl of 20× concentrated stock solutions of agonist prepared in DMSO. Plates were incubated for 30 min at a temperature of about 25° C. with shaking Reactions were terminated by rapid filtration onto 96-well Unifilter GF/B filter plates (Perkin Elmer, Shelton, Conn.) using a 96-well tissue harvester (Packard) and followed by three filtration washes with 200 μl ice-cold binding buffer (10 mM NaH2PO4, 10 mM Na2HPO4, pH 7.4). Filter plates were subsequently dried at 50° C. for 1-2 hours. Fifty μl/well scintillation cocktail (Perkin Elmer, Shelton, Conn.) was added and plates were counted in a Packard Top-count for 1 min/well.
δ GTP Emax (%) is the maximal effect elicited by a compound relative to the effect elicited by met-enkephalin.

Assay [3] has as its target T1, μ-opioid receptor. In words: μ-opioid receptor [35S]GTPγS functional assay, U-2 OS cells (Table 5). The format is biochemical. An outline of the steps:
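Membranes (0.026 mg/mL) from cells expressing recombinant human μ-opioid receptor in a U-2 OS background were incubated with 0.20 nM [35S]GTPγS, 3 mM GDP and saponin in 20 mM HEPES pH 7.4, 100 mM NaCl, 10 mM MgCl2 for 30 min at about 25 °C. Filter-bound radioactivity counted; sigmoidal dose-response fits gave values, Emax relative to DAMGO.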
Background: Binding of GTPγS marks nucleotide exchange on a G protein.

δ-opioid receptor, sequence (P41143 whole entry, looked up): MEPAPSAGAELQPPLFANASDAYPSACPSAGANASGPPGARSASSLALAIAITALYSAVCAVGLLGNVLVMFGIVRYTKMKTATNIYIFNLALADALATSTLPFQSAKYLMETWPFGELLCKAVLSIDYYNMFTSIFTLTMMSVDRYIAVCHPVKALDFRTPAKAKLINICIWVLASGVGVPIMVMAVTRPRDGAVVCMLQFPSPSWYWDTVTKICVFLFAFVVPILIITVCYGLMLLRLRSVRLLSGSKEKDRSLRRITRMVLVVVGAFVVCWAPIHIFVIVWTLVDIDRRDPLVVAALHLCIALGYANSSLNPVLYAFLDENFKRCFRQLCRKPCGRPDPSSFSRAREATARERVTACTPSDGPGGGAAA

As to `NC(=O)[C@@H]1C[C@]23CCN(CC4CC4)[C@H](Cc4ccc(O)cc42)[C@]3(O)C1` [Compound 31, (2R,3aS,4R,9bS)-12-(cyclopropylmethyl)-3a,8-dihydroxy-1,2,3,3a,4,5-hexahydro-4,9b-(epiminoethano)cyclopenta-[a]naphthalene-2-carboxamide], the Ki on μ-opioid receptor [1] was determined as 10.2 ± 3.58 nM; in assay [2] it was 0.84 ± 0.26 nM. Also, the Emax on δ-opioid receptor (relative to met-enkephalin) is 32 ± 3.49%; at μ-opioid receptor [3] (relative to DAMGO) it was 49 ± 3.76%. Besides, the EC50 on δ-opioid receptor (δ GTP) stood at 75.5 ± 13.6 nM; on μ-opioid receptor [3] (μ GTP), 2.35 ± 0.32 nM.

As a reminder, the Ki is the dissociation constant of the complex between target and ligand, obtained from inhibition or displacement. As a reminder, the Emax is the maximal effect, on the per cent scale that the assay sets. A word on the EC50: it is the concentration that produces a half-maximal response.

(Values after patent US9656962B2, “Ring-contracted morphinans and the use thereof” (Purdue Pharma L.P., priority 2013, dated 2017).)
